Experimental data published in PMC8026479 (Cancer Chemotherapy and Pharmacology, 2021).

What was measured:
[1] = test system: transition rate constant from G1 to cycling for HSPCs; assay: Semi-mechanistic multi-compartment PK/PD model of hematopoiesis; set-up: species or system mouse, rat, and dog; conditions: conservative modification of literature estimate; elimination rate constant 1/h
Description: Owing to the invasive nature of the PD marker collection (i.e. bone marrow aspiration), a semi-mechanistic PK/PD model based on animal PK/PD data and human PK data was developed to guide the selection of an optimal dose level for bone marrow aspiration in humans during dose escalation in the Phase I first-in-human study. The model was constructed using PK data from four species (mouse, rat, dog, and human) and PD data from three species (mouse, rat, and dog; Online Resources 1 and 2).
The PK/multi-compartment PD model was based on a myelosuppression model previously published by Friberg et al., with modifications. […] In the model used in the current study, stem cells and progenitor cells were separated into two compartments, with experimental data measured for each compartment. […] Another important deviation from the Friberg model was the mechanism postulated for the homeostasis of the […] (PMNs). We postulated that the feedback mechanism has a set point target and that deviations from that target would accelerate (in the case of too few PMNs) or decelerate (in the case of too many PMNs) the transition of G1-phase cells to S-phase cells in the stem cell population.
The model was constructed in two stages. First, preclinical PK data (e.g. doses, routes, and schedule of administration, observed concentrations) were compiled and modeled by allometric scaling. A sequential PK/PD modeling approach (population PK parameters and data approach) was then employed in which a semi-mechanistic PD model with various physiological compartments was created, and specific assumptions entered (Online Resource 3). Traditional forward addition/backward elimination was used for PK modeling. […] Many parameters in this complex model could not be estimated and were fixed either to the literature values or values selected on the basis of discussions with domain experts and sensitivity analysis. In preclinical animal models, the PD analysis modeled bone marrow cells positive for 5′-ethynyl-2′-deoxyuridine (EdU) and peripheral neutrophil counts simultaneously. […]

[2] = cited from earlier work

pharmacologic activity half-life of 5-FU [1]: 42 min
SMILES: O=c1[nH]cc(F)c(=O)[nH]1 [5-FU, 5-fluorouracil, reference compound]
half-life of 5-FU, literature estimate [2]: 8 to 20 min
